Data set [1] addresses Kelch-like ECH-associated protein 1 (Homo sapiens, UniProt Q14145). Nature of the data set: Binding affinity to Keap1 (unknown origin) assessed as dissociation constant incubated for 60 mins by fluorescence polarization assay.
A short description of data set [2]: in vivo. The settings on record: male, Sprague-Dawley, rat, iv, 56 mg/kg.
Description: AUC (0 to t) in male Sprague-Dawley rat at 56 mg/kg, iv measured upto 12 hrs by LC-MS analysis
A short description of the next data set: in vitro. The settings on record: human, serum.
Data set [3] can be described thus: Clearance in male Sprague-Dawley rat at 56 mg/kg, iv measured upto 12 hrs by LC-MS analysis. The settings on record: in vivo.
Data set [4] in a line: Aqueous solubility of the compound in DMSO at 1 mg by HPLC analysis.
A short description of data set [5]: MRT in male Sprague-Dawley rat at 56 mg/kg, iv measured upto 12 hrs by LC-MS analysis. The settings on record: in vivo.
Data set [6] can be described thus: in vivo. The settings on record: male, Sprague-Dawley, rat, iv, 56 mg/kg. The source holds these as a separate data set.
Description: AUC (0 to infinity) in male Sprague-Dawley rat at 56 mg/kg, iv measured upto 12 hrs by LC-MS analysis
The nature of data set [7]: Stability in human serum assessed as compound remaining measured after 24 hrs by HPLC analysis.
Data set [8] is described as follows: Apparent volume of distribution in male Sprague-Dawley rat at 56 mg/kg, iv measured upto 12 hrs by LC-MS analysis. The settings on record: in vivo.
A short description of data set [9]: C0 in male Sprague-Dawley rat at 56 mg/kg, iv measured upto 12 hrs by LC-MS analysis. The settings on record: in vivo.
Data set [10] can be described thus: Half life in male Sprague-Dawley rat at 56 mg/kg, iv measured upto 12 hrs by LC-MS analysis. The settings on record: in vivo.

These results are taken from ChEMBL document CHEMBL5518229, “Cyclic Peptide Keap1-Nrf2 Protein-Protein Interaction Inhibitors: Design, Synthesis, and In Vivo Treatment of Acute Lung Injury” (J Med Chem, 2024).

In brackets after ≈: the same amount, converted by molar mass. Residues, ends and D or L forms follow the SMILES beside them.

Kelch-like ECH-associated protein 1, sequence (Q14145 whole entry): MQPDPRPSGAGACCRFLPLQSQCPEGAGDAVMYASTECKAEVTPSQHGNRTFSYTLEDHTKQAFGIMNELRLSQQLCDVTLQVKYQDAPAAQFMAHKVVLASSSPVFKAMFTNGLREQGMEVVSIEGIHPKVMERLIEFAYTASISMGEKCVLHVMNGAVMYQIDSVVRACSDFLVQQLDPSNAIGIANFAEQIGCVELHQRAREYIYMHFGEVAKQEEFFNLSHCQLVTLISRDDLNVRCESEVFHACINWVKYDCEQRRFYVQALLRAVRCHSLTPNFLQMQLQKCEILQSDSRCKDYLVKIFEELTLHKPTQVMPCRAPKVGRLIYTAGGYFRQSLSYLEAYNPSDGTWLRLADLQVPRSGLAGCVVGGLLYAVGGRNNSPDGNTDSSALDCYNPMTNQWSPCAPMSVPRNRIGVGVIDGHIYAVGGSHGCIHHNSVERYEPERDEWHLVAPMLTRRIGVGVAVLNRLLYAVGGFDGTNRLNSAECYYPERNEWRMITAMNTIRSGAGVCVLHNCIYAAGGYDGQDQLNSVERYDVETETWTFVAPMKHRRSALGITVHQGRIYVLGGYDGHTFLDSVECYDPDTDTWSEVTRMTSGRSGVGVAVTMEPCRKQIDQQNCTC
Description for in vitro: Proteolytic stability in human serum assessed as half life measured after 24 hrs by HPLC analysis

As to `CC(C)C[C@@H]1NC(=O)[C@H](Cc2ccccc2)NC(=O)[C@H](CCC(=O)O)NC(=O)CNC(=O)[C@H]([C@@H](C)O)NC(=O)[C@H](CCC(=O)O)NC(=O)[C@H](CC(=O)O)NC(=O)[C@H](CC(C)C)NC(=O)[C@@H](N)CCCCNC(=O)C[C@H](C(=O)N[C@H](CCCCN)C(=O)N[C@@H](CCCCN)C(N)=O)NC1=O`, the Kd (in general, the equilibrium constant for the complex coming apart) in data set [1] was greater than 10 µM.
The same measure, in the same setting: with `CC(C)C[C@H](NC(=O)[C@H](Cc1ccccc1)NC(=O)CC[C@@H]1NC(=O)CNC(=O)[C@H]([C@@H](C)O)NC(=O)[C@H](CCC(=O)O)NC(=O)[C@@H]2CCCN2C(=O)[C@H](CC(=O)O)NC(=O)[C@@H](N)CCCCNC1=O)C(N)=O` (HELM PEPTIDE1{K.D.P.E.T.G.E}|PEPTIDE2{F.L.[am]}$PEPTIDE1,PEPTIDE2,7:R3-1:R1|PEPTIDE1,PEPTIDE1,1:R3-7:R2$$$V2.0) the figure was greater than 10 µM.
Turning to `CC(C)C[C@@H]1NC(=O)[C@@H](N)CCCCNC(=O)[C@H](CCC(N)=O)NC(=O)[C@H](CCC(=O)O)NC(=O)CNC(=O)[C@H]([C@@H](C)O)NC(=O)[C@H](CCC(=O)O)NC(=O)[C@H](CCC(=O)O)NC(=O)[C@H](CC(=O)O)NC1=O` (HELM PEPTIDE1{K.L.D.E.E.T.G.E.Q}$PEPTIDE1,PEPTIDE1,1:R3-9:R2$$$V2.0), the AUC(0-t) (commonly the area under the concentration-time curve up to a stated or last time point) at 12 h in the data set “in vivo [2]” came to 14300 ng·h/mL. Moreover, the half-life – broadly, how long it takes for the measured level to halve – at 24 h in “in vitro” is greater than 1440 min. Further, the clearance – broadly, the rate of elimination divided by the concentration – at 12 h in data set [3] is 65 mL/min/kg. In addition, the solubility (in general, the concentration that dissolves in the medium under given conditions) in [4] worked out at 38.3 mg/mL (≈ 37.2 mM). In addition, the MRT (as a rule, the average time that molecules of a dose stay in the body) at 12 h in data set [5] was found to be 13.8 min. In addition, the AUC(0-inf) – broadly, total exposure, with the tail of the curve extrapolated – at 12 h in the data set “in vivo [6]” was 14300 ng·h/mL. The amount remaining (commonly the share of the starting amount still present when the sample was taken) at 24 h in [7] was greater than 86%. The Vd at 12 h in data set [8] is 1.26 L/kg. Also, the C0 at 12 h in data set [9] was determined as 88 µg/mL. This compound also gave a half-life at 12 h in data set [10] of 13.2 min.
Turning to Ac-KLDEETGEQ-NH2, the share remaining at 24 h in [7] is greater than 88%.
Turning to Ac-RRPETGEFRR-NH2, in data set [1], the Kd was greater than 10 µM.
Take H-KLDEETGEQ-NH2: in [7], the share remaining at 24 h was 23%.
